According to ChEMBL document CHEMBL1152144, “In situ blood-brain barrier permeability of a C-10 paclitaxel carbamate” (Bioorg Med Chem Lett, 2008):

Tested on: Brain
Test: Blood-brain barrier permeability in B6C3 mouse brain assessed as increase in drug level at 0.1 uCi, iv relative to [14C]paclitaxel
Format: ADME, organism-based
Conditions: in vivo

Structure (SMILES)	fold change (FC)
CC(=O)O[C@@]12CO[C@@H]1C[C@H](O)[C@@]1(C)C(=O)[C@H](OC(=O)CCC(=O)O)C3=C(C)[C@@H](OC(=O)[C@H](O)[C@@H](NC(=O)c4ccccc4)c4ccccc4)C[C@@](O)([C@@H](OC(=O)c4ccccc4)[C@H]21)C3(C)C	6
CC(=O)O[C@@]12CO[C@@H]1C[C@H](O)[C@@]1(C)C(=O)[C@H](OC(=O)N[14CH2][14CH2]O)C3=C(C)[C@@H](OC(=O)[C@H](O)[C@@H](NC(=O)c4ccccc4)c4ccccc4)C[C@@](O)([C@@H](OC(=O)c4ccccc4)[C@H]21)C3(C)C	3
